Laboratory results: patent US20120035247A1, “RNA Interference Mediated Inhibition of Signal Transducer and Activator of Transcription 6 (STAT6) Gene Expression Using Short Interfering Nucleic Acid (siNA)” (Merck Sharp & Dohme Corp., priority 2009, published 2012)
[invAb] = inverted abasic unit; d = 2'-deoxy (DNA); m = 2'-O-methyl; r = 2'-OH (RNA); f = 2'-fluoro

Experiments:
STAT6 mRNA [1] = assay: STAT6 siNA screen and dose response in human A549 cells, STAT6 mRNA by quantitative RT-PCR (Taqman); format: cell-based; conditions: human A549 cells, 10 nM siNA, 24 hrs, normalized to GAPDH and non-targeting control, mean ± S.D., n = 3
Experimental: A549 (human; ATCC cat# CCL-185): Cells were cultured at 37° C. in the presence of 5% CO2 and grown in Ham's F12K medium with 2 mM L-glutamine adjusted to contain 1.5 g/L sodium bicarbonate and supplemented with fetal bovine serum at a final concentration of 10%, 100 μg/mL of streptomycin, and 100 U/mL penicillin.
(§1) Cells were plated in all wells of a tissue-culture treated, 96-well plate at a final count of 5000 cells/well in […], of the appropriate culture media. The cells were cultured for 24 hours after plating at 37° C. in the presence of 5% CO2.
(§2) After 24 hours, complexes containing siNA and RNAiMax were created as follows: A solution of RNAiMax diluted 33-fold in OPTI-MEM was prepared. In parallel, solutions of the siNAs for testing were prepared to a final concentration of 120 nM in OPTI-MEM. After incubation of RNAiMax/OPTI-MEM solution at room temperature for 5 min, an equal volume of the siNA solution and the RNAiMax solution were added together for each of the siNAs.
(§3) This solution was incubated at room temperature for 20 minutes. After incubation, 20 uL of the solution was added to each of the relevant wells. The final concentration of siNA in each well was 10 nM and the final volume of RNAiMax in each well was 0.3u1.
(§4) The time of incubation with the RNAiMax-siNA complexes was 24 hours and there was no change in media between transfection and harvesting, unless otherwise indicated.
(§5) RNA was extracted from a 96-well plate using the TaqMan® Gene Expression Cells-to-CT™ Kit (Cat#4399002) with a modified protocol. Briefly, a 60 uL (1 plate) or 110 uL (2 plates) of the Lysis Solution with DNase I was dispensed into each well of the Lysis Buffer Plate (twin.tec full skirt plate). The lysis buffer and stop plates were stored at 4° C. until the cells were washed.
(§6) The plate was spun at 1100 rpm for 5 minutes. The culture medium was aspirated and discarded from the wells of the culture plate. The lysis was performed automatically using a BioMek FX instrument and method. After the Biomek method was completed, the lysis plate was incubated for 2 min. at room temperature. The lysis plate can be stored for 2 hours at 4° C., or at −20° C. or −80° C. for two months.
(§7) Each well of the reverse transcription plate required 10 uL of 2× reverse transcriptase Buffer, luL of 20× reverse transcription enzyme and 2 uL of nuclease-free water. The reverse transcription master mix was prepared by mixing 2× reverse transcription buffer, 20× reverse transcription enzyme mix, and nuclease-free water. 13 uL of the reverse transcription master mix was dispensed into each well of the reverse transcription plate (semi-skirted). A separate reverse transcription plate was prepared for each cell plate. The plate was loaded onto a Biomek NX or Biomek FX Dual-96 and the Biomek method was run. The program is programmed to automatically added 7 uL of lysate from the cell lysis procedure described above into each well of the reverse transcription plate. The plate is sealed and spun on a centrifuge (1000 rpm for 30 seconds) to settle the contents to the bottom of the reverse transcription plate. The plate is placed in a thermocycler at 37° C. for 60 min, 95° C. for 5 min, and 4° C. until the plate is removed from the thermocycler. Upon removal, if not used immediately, the plate was frozen at −20° C.
(§8) A series of probes and primers were used to detect the various mRNA transcripts of the genes of 13-Actin (human cell line only), and of STATE and GAPDH in mouse and human cell lines. All Taqman probes and primers for the experiments here-in described were supplied as pre-validated sets by Applied Biosystems, Inc. (see Table 2).
The assays were performed on an ABI 7900 instrument, according to the manufacturer's instructions. A TaqMan Gene Expression Master Mix (provided in the Cells-to-CTT™, Applied Biosystems, Cat #4399002) was used. The PCR reactions were carried out at 50° C. for 2 min, 95° C. for 20 min followed by 40 cycles at 95° C. for 15 secs and 60° C. for 1 min. […]

STAT6 mRNA [2] = assay: STAT6 siNA screen in mouse NIH 3T3 cells, STAT6 mRNA by quantitative RT-PCR (Taqman); format: cell-based; conditions: mouse NIH3T3 cells, 10 nM siNA, 24 hrs, normalized to GAPDH and non-targeting control, n = 2
Experimental: NIH 3T3 (mouse; ATCC cat# CRL-1658): Cells were cultured at 37° C. in the presence of 5% CO2 and grown in Dulbecco's modified Eagle's medium (DMEM) with 4 mM L-glutamine adjusted to contain 1.5 g/L sodium bicarbonate and 4.5 g/L glucose and supplemented with fetal bovine serum at a final concentration of 10%, 100 μg/mL of streptomycin, and 100 U/mL penicillin.
as §1, §2, §3, §4, §5, §6, §7, §8
The assays were performed on an ABI 7900 instrument, according to the manufacturer's instructions. A TaqMan Gene Expression Master Mix (provided in the Cells-to-CTT™, Applied Biosystems, Cat #4399002) was used. […]

29992-DC: STAT6 siNA duplex; sense SEQ ID NO: 48, antisense SEQ ID NO: 49; target CUGAGAACCCUCGUCACCA, site 1064 (sense CUGAGAACCCUCGUCACCATT; antisense UGGUGACGAGGGUUCUCAGUU; sense: DNA at AGT, 2'-fluoro at CU, [invAb] at 5' end, 3' end, backbone not given here; antisense: sugars from the 5' end rrrfmmfmmmmmfffffmmmm, backbone not given here) [STAT6 siNA duplex; target CUGAGAACCCUCGUCACCA, site 1064]
% KD STAT6 (STAT6 mRNA [1]): 51.2 ± 0.4%
% KD STAT6 (STAT6 mRNA [2]): −0.5 ± 1%

30010-DC: STAT6 siNA duplex; sense SEQ ID NO: 84, antisense SEQ ID NO: 85; target GGGACAAUGCCUUCUCUGA, site 1568 (sense GGGACAAUGCCUUCUCUGATT; antisense UCAGAGAAGGCAUUGUCCCUU; sense: sugars from the 5' end dddrfddfdffffffffdddd, [invAb] at 5' end, 3' end, backbone not given here; antisense: sugars from the 5' end rrrmmmmmmmfmffmffffmm, backbone not given here) [STAT6 siNA duplex; target GGGACAAUGCCUUCUCUGA, site 1568]
% KD STAT6 (STAT6 mRNA [1]): 6 ± 23.6%
% KD STAT6 (STAT6 mRNA [2]): −26.2 ± 0.2%

29996-DC: STAT6 siNA duplex; sense SEQ ID NO: 56, antisense SEQ ID NO: 57; target GCACCAUCUUGCAACACAU, site 495 (sense GCACCAUCUUGCAACACAUTT; antisense AUGUGUUGCAAGAUGGUGCUU; sense: DNA at AGT, 2'-fluoro at CU, [invAb] at 5' end, 3' end, backbone not given here; antisense: sugars from the 5' end rrrfmffmfmmmmfmmfmfmm, backbone not given here) [STAT6 siNA duplex; target GCACCAUCUUGCAACACAU, site 495]
% KD STAT6 (STAT6 mRNA [1]): 49.5 ± 5.5%
% KD STAT6 (STAT6 mRNA [2]): −10.9 ± 0.1%

30013-DC: STAT6 siNA duplex; sense SEQ ID NO: 90, antisense SEQ ID NO: 91; target CAUGGUGCCACCUUAUGAU, site 2280 (sense CAUGGUGCCACCUUAUGAUTT; antisense AUCAUAAGGUGGCACCAUGUU; sense: DNA at AGT, 2'-fluoro at CU, [invAb] at 5' end, 3' end, backbone not given here; antisense: sugars from the 5' end rrrmfmmmmfmmfmffmfmmm, backbone not given here) [STAT6 siNA duplex; target CAUGGUGCCACCUUAUGAU, site 2280]
% KD STAT6 (STAT6 mRNA [1]): 19.6 ± 13.6%
% KD STAT6 (STAT6 mRNA [2]): 46.1 ± 2.2%

29989-DC: STAT6 siNA duplex; sense SEQ ID NO: 42, antisense SEQ ID NO: 43; target GAAGGCUUCUCCGCCCAUU, site 3187 (sense GAAGGCUUCUCCGCCCAUUTT; antisense AAUGGGCGGAGAAGCCUUCUU; sense: DNA at AGT, 2'-fluoro at CU, [invAb] at 5' end, 3' end, backbone not given here; antisense: sugars from the 5' end rrrmmmfmmmmmmmfffffmm, backbone not given here) [STAT6 siNA duplex; target GAAGGCUUCUCCGCCCAUU, site 3187]
% KD STAT6 (STAT6 mRNA [1]): 29.1 ± 3.8%
% KD STAT6 (STAT6 mRNA [2]): −18.3 ± 7.1%
